Results published in paper PMC9103764, “Pilot Study on Acute Effects of Pharmacological Intraperitoneal L-Homoarginine on Homeostasis of Lysine and Other Amino Acids in a Rat Model of Isoprenaline-Induced Takotsubo Cardiomyopathy” (International Journal of Molecular Sciences, 2022).

What was measured:
[1] = test system: L-Arginine:glycine amidinotransferase (AGAT); assay: Equilibrium constants of the AGAT-catalyzed reactions calculated from free amino acid concentrations in rat organs; type: in vivo, Sprague-Dawley rats; settings: ISO 50 mg/kg i.p. at 15 min
[2] = set-up: method as in PMID 24004504; settings: cited from earlier work
[3] = Free amino acids by GC-MS in organ homogenates of rats given i.p. hArg (isoprenaline-induced takotsubo model)
[4] = test system: polyamine catabolism; assay: Putrescine:spermidine (PUT/SPD) molar ratio in organ homogenates; settings: R17; hArg 440 mg/kg i.p.; 14 min; without isoprenaline
[5] = R18, hArg 20 mg/kg i.p., sacrifice 114 min
[6] = R19, hArg 220 mg/kg i.p., sacrifice 98 min
[7] = hArg treatment, mice, dose-dependent
[8] = R1, hArg 440 mg/kg i.p., sacrifice 32 min, ISO 50 mg/kg i.p. at 15 min
[9] = R2, hArg 20 mg/kg i.p., sacrifice 64 min, ISO 50 mg/kg i.p. at 15 min
[10] = R3, hArg 20 mg/kg i.p., sacrifice 28 min, ISO 50 mg/kg i.p. at 15 min
[11] = R4, hArg 440 mg/kg i.p., sacrifice 87 min, ISO 50 mg/kg i.p. at 15 min
[12] = R13, hArg 20 mg/kg i.p., sacrifice 126 min, ISO 50 mg/kg i.p. at 15 min
[13] = R14, hArg 220 mg/kg i.p., sacrifice 108 min, ISO 50 mg/kg i.p. at 15 min
[14] = R17, hArg 440 mg/kg i.p., sacrifice 14 min, no ISO
[15] = R18, hArg 20 mg/kg i.p., sacrifice 114 min, ISO 50 mg/kg i.p. at 15 min
[16] = R19, hArg 220 mg/kg i.p., sacrifice 98 min, ISO 50 mg/kg i.p. at 15 min

## N=C(N)NCCCC[C@H](N)C(=O)O [hArg, L-homoarginine]
[1]; [5]
  equilibrium constant KGAA, heart: 0.31
  equilibrium constant KGAA, kidney: 1.94
  equilibrium constant KGAA, liver: 4.20
  equilibrium constant KGAA, lung: 0.21
  equilibrium constant KhArg, heart: 0.11
  equilibrium constant KhArg, kidney: 0.009
  equilibrium constant KhArg, liver: 0.50
  equilibrium constant KhArg, lung: 0.03
[1]; [6]
  KhArg/KGAA ratio, kidney: 1.8
  KhArg/KGAA ratio, liver: 2.0
  equilibrium constant KGAA, kidney: 0.35
  equilibrium constant KGAA, liver: 2.59
  equilibrium constant KhArg, kidney: 0.62
  equilibrium constant KhArg, liver: 5.26
  equilibrium constant KhArg, lung: 0.20
[2]; [7]
  infarct size: decreased infarct sizes
  neurological scores: improved neurological scores
[2]; oral hArg, C57BL6 mice, versus vehicle-treated
  hArg plasma concentration: 0.20 ± 0.02 µM
[3]; [8]
  free Arg concentration, kidney homogenate: 365 µM
  free Arg concentration, lung homogenate: 102 µM
  free Lys concentration, kidney homogenate: 646 µM
  free Lys concentration, lung homogenate: 229 µM
[3]; [9]
  free Arg concentration, heart homogenate: 384 µM
  free Arg concentration, kidney homogenate: 37.4 µM
  free Arg concentration, liver homogenate: 124 µM
  free Arg concentration, lung homogenate: 210 µM
  free Lys concentration, heart homogenate: 644 µM
  free Lys concentration, kidney homogenate: 96 µM
  free Lys concentration, liver homogenate: 241 µM
  free Lys concentration, lung homogenate: 306 µM
[3]; [10]
  free Arg concentration, heart homogenate: 575 µM
  free Arg concentration, kidney homogenate: 60.7 µM
  free Arg concentration, liver homogenate: 14.3 µM
  free Arg concentration, lung homogenate: 7.34 µM
  free Lys concentration, heart homogenate: 834 µM
  free Lys concentration, kidney homogenate: 173 µM
  free Lys concentration, liver homogenate: 392 µM
  free Lys concentration, lung homogenate: 191 µM
[3]; [11]
  free Arg concentration, kidney homogenate: 73.8 µM
  free Arg concentration, liver homogenate: 10.3 µM
  free Arg concentration, lung homogenate: 185 µM
  free Lys concentration, kidney homogenate: 187 µM
  free Lys concentration, liver homogenate: 714 µM
  free Lys concentration, lung homogenate: 441 µM
[3]; [12]
  free Arg concentration, heart homogenate: 75.4 µM
  free Arg concentration, kidney homogenate: 370 µM
  free Arg concentration, liver homogenate: 21.2 µM
  free Arg concentration, lung homogenate: 261 µM
  free Lys concentration, heart homogenate: 151 µM
  free Lys concentration, kidney homogenate: 602 µM
  free Lys concentration, liver homogenate: 492 µM
  free Lys concentration, lung homogenate: 471 µM
[3]; [13]
  free Arg concentration, heart homogenate: 91.2 µM
  free Arg concentration, kidney homogenate: 733 µM
  free Arg concentration, liver homogenate: 15.9 µM
  free Arg concentration, lung homogenate: 171 µM
  free Lys concentration, heart homogenate: 154 µM
  free Lys concentration, kidney homogenate: 1101 µM
  free Lys concentration, liver homogenate: 391 µM
  free Lys concentration, lung homogenate: 245 µM
[3]; [14]
  free Arg concentration, heart homogenate: 92 µM
  free Arg concentration, kidney homogenate: 767 µM
  free Arg concentration, liver homogenate: 29.8 µM
  free Arg concentration, lung homogenate: 230 µM
  free Lys concentration, heart homogenate: 140 µM
  free Lys concentration, kidney homogenate: 1138 µM
  free Lys concentration, liver homogenate: 497 µM
  free Lys concentration, lung homogenate: 386 µM
[3]; [15]
  free Arg concentration, heart homogenate: 51.3 µM
  free Arg concentration, kidney homogenate: 262 µM
  free Arg concentration, liver homogenate: 10.1 µM
  free Arg concentration, lung homogenate: 136 µM
  free Lys concentration, heart homogenate: 153 µM
  free Lys concentration, kidney homogenate: 503 µM
  free Lys concentration, liver homogenate: 328 µM
  free Lys concentration, lung homogenate: 391 µM
[3]; [16]
  free Arg concentration, kidney homogenate: 56.3 µM
  free Arg concentration, liver homogenate: 15 µM
  free Arg concentration, lung homogenate: 233 µM
  free Lys concentration, kidney homogenate: 145 µM
  free Lys concentration, liver homogenate: 451 µM
  free Lys concentration, lung homogenate: 169 µM
[3]; after i.p. hArg, Figure 5
  increase in free GAA in the kidney: ~100 fold
[3]; all organs, data not shown
  effect on global arginine bioavailability ratio (GABR): independent of the hArg dose
[4]
  PUT/SPD molar ratio, heart: 1.5
  PUT/SPD molar ratio, kidney: 0.86
  PUT/SPD molar ratio, liver: 0.12
  PUT/SPD molar ratio, lung: 0.83
